This passage reports IC50 results from patent US20170320870A1 (Medical Research Council Technology, priority 2009, published 2017).

Each structure is given as a SMILES string.

The term IC50 denotes the midpoint of a concentration-inhibition curve.

In the test the target is T1, LRRK2 wild type (recombinant human, catalytic domain amino acids 970-2527, GST-tagged) (Homo sapiens, UniProt Q5S007).
T1 construct: The wild type used was recombinant human, catalytic domain (amino acids 970-2527) GST-tagged, expressed in insect cells; GST; purchased Invitrogen Corporation PV4873; host or cells: insect cells
T1 sequence (Q5S007 970-2527): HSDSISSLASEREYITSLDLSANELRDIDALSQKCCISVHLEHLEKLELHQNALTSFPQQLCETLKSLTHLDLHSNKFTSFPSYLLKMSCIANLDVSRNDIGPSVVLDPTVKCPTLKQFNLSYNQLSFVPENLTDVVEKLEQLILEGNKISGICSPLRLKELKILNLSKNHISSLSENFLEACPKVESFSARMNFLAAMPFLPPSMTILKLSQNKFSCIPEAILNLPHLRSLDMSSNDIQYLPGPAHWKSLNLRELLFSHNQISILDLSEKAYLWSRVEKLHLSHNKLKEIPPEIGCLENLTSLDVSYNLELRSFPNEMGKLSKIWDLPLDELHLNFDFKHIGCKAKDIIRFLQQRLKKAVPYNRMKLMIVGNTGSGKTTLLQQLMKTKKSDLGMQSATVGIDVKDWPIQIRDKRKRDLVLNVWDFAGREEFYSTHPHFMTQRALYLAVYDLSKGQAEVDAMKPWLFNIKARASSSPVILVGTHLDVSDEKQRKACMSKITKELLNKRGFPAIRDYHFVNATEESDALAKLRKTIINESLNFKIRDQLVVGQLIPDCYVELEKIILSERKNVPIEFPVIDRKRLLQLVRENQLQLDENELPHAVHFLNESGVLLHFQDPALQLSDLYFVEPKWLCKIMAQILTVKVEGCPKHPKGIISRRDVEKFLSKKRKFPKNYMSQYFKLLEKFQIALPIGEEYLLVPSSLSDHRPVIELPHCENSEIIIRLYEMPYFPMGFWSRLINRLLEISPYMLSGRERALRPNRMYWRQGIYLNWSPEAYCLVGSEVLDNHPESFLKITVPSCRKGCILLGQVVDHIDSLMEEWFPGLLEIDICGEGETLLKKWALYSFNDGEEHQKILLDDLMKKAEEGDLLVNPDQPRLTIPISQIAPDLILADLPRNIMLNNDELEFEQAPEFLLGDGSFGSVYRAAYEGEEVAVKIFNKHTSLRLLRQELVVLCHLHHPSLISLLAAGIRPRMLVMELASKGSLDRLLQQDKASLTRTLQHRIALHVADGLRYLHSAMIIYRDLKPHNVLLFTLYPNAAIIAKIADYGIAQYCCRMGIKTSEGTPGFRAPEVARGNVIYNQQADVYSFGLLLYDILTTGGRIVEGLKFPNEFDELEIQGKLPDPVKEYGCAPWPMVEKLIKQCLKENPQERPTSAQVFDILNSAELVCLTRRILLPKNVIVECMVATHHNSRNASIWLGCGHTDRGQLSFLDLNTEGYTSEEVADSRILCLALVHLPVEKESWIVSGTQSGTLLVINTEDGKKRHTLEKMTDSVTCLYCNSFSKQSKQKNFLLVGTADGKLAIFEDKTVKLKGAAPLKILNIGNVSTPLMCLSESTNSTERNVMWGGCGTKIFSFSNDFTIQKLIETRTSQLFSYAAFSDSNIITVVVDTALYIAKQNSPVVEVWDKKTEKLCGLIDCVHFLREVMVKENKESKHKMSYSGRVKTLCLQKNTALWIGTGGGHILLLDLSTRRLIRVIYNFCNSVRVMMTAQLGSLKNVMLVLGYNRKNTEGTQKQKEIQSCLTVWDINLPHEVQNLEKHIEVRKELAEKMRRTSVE
The test is described as follows: LRRK2 wild type protein kinase assay ([γ-33P] ATP, peptide substrate […]), IC50. Type of test: biochemical. Particulars: LRRK2 (variant not given); read-out: Potency score, LRRK2 IC50. From the text:
All LRRK2 protein kinases were of human origin and were sourced from Invitrogen Corporation (Carlsbad, Calif. 92008 USA) unless otherwise indicated. The active mutant used was recombinant human, catalytic domain (amino acids 970-2527) containing a G2019S mutation, GST-tagged, expressed in insect cells (Invitrogen Cat#PV4881). The wild type used was recombinant human, catalytic domain (amino acids 970-2527) GST-tagged, expressed in insect cells (Invitrogen Cat#PV4873). The kinase dead mutant used was recombinant human, catalytic domain (amino acids 970-2527) containing a D1994A mutation, GST-tagged, expressed in insect cells (Invitrogen Cat#PM4041AE). No special measures were taken to activate any of the kinases.
All assays were carried out at room temperature (˜21° C.) and were linear with respect to time and enzyme concentration under the conditions used. Assays were performed for 180 min in a 96 well format. LRRK2 was present at a concentration of approximately 5 nM. The enzyme was diluted and assayed in 50 mM Tris-HCl pH7.5, 0.1 mM EGTA, 1 mM DTT and 10 mM MgCl2. The concentration of magnesium chloride in the assay was 10 mM. The [γ-33P] […] The peptide substrate in the assay was […] at 100 μM.
The assays were initiated with Mg/ATP and stopped by the addition of 25 μl/well 50% orthophosphoric acid. Reactions were harvested onto Whatman P81 Unifilter Plates (Fisher Scientific. Loughborough, LE115RG, UK. Cat# FDU-105-020U) using a Tomtec harvester. (Tomtec Hamden, Conn. 06514. USA) Plates were counted using a Perkin Elmer Top Count NX7. (Perkin Elmer, Shelton Conn. 06484-4794 USA)
IC50 values of inhibitors were determined after carrying out assays at 10 different concentrations of each compound in duplicate.
For the compound `Cc1n[nH]c2ccnc(C(=O)NC3CCCCC3)c12` [Example 100, 3-Methyl-1H-pyrazolo[4,3-c]pyridine-4-carboxylic acid cyclohexylamide], the IC50 was 1000 to 10000 nM.

`CC1CN(C(=O)CCc2n[nH]c3ccnc(NC4CCCCC4)c23)CCN1C` (centres unmarked) [Example 244, 3-(4-Cyclohexylamino-1H-pyrazolo [4,3-c]pyridin-3-yl)-1-(3,4-dimethyl-piperazin-1-yl)-propan-1-one]: the IC50 lay within 100 to 1000 nM.

As to `Cc1n[nH]c2ccnc(Nc3cccc(CO)c3)c12` [Example 321, [3-(3-Methyl-1H-pyrazolo[4,3-c]pyridin-4-ylamino)-phenyl]-methanol], the IC50 was 100 to 1000 nM. The value for `Cc1n[nH]c2ccnc(NCCc3cccc(Cl)c3)c12` [Example 331, [2-(3-Chloro-phenyl)-ethyl]-(3-methyl-1H-pyrazolo[4,3-c]pyridin-4-yl)-amine] was 100 to 1000 nM; that for `CCC(C)Nc1nccc2[nH]nc(C)c12` (centres unmarked) [Example 23, sec-Butyl-(3-methyl-1H-pyrazolo[4,3-c]pyridin-4-yl)-amine] was 100 to 1000 nM; that for `Cc1n[nH]c2ccnc(Nc3cc(F)cc(F)c3)c12` [Example 69, (3,5-Difluoro-phenyl)-(3-methyl-1H-pyrazolo[4,3-c]pyridin-4-yl)-amine] was 100 to 1000 nM. For `CC1CCCN(C(=O)CCc2n[nH]c3ccnc(NC4CCCCC4)c23)C1` (centres unmarked) [Example 199, 3-(4-Cyclohexylamino-1H-pyrazolo[4,3-c]pyridin-3-yl)-1-(3-methyl-piperidin-1-yl)-propan-1-one], the IC50 was < 100 nM. Regarding `COc1ccccc1CNc1nccc2[nH]nc(C)c12` [Example 336], the IC50 fell in the range of 1000 to 10000 nM. In the case of `Cc1n[nH]c2ccnc(NCC3CC3)c12` [Example 18, Cyclopropylmethyl-(3-methyl-1H-pyrazolo[4,3-c]pyridin-4-yl)-amine], the IC50 fell in the range of 1000 to 10000 nM. With `CC1CN(C(=O)c2ccc(CCc3n[nH]c4ccnc(NC5CCCCC5)c34)cc2)CCN1C` (centres unmarked) [Example 247, {4-[2-(4-Cyclohexylamino-1H-pyrazolo[4,3-c]pyridin-3-yl)-ethyl]-phenyl}-(3,4-dimethyl-piperazin-1-yl)-methanone] the figure was < 100 nM; with `COCC(=O)Nc1ccc(CCc2n[nH]c3ccnc(NC4CCCCC4)c23)cc1` [Example 272, N-{4-[2-(4-Cyclohexylamino-1H-pyrazolo[4,3-c]pyridin-3-yl)-ethyl]-phenyl}-2-methoxy-acetamide], < 100 nM; with `COc1ccc(CCNc2nccc3[nH]nc(C)c23)cc1` [Example 338, [2-(4-Methoxy-phenyl)-ethyl]-(3-methyl-1H-pyrazolo[4,3-c]pyridin-4-yl)-amine], 1000 to 10000 nM.

As to `Cc1n[nH]c2ccnc(OCc3ccccc3)c12` [Example 290, 4-Benzyloxy-3-methyl-1H-pyrazolo[4,3-c]pyridine], the IC50 was 100 to 1000 nM. `Cc1n[nH]c2ccnc(Nc3ccc(Cl)c(Cl)c3)c12` [Example 305, (3,4-Dichloro-phenyl)-(3-methyl-1H-pyrazolo[4,3-c]pyridin-4-yl)-amine]: the IC50 was in the range of 100 to 1000 nM. Consider `Cc1n[nH]c2ccnc(NCC(C)(C)C)c12` [Example 32, (2,2-Dimethyl-propyl)-(3-methyl-1H-pyrazolo[4,3-c]pyridin-4-yl)-amine], for which the IC50 was 1000 to 10000 nM. `Cc1n[nH]c2ccnc(NC3CCC3)c12` [Example 22, Cyclobutyl-(3-methyl-1H-pyrazolo[4,3-c]pyridin-4-yl)-amine]: the IC50 fell in the range of 100 to 1000 nM. As to `Cn1cc(-c2n[nH]c3ccnc(NC4CCCCC4)c23)cn1` [Example 162, Cyclohexyl-[3-(1-methyl-1H-pyrazolo-4-yl)-1H-pyrazolo[4,3-c]pyridin-4-yl]-amine], the 50% inhibitory concentration (IC50) lay within 100 to 1000 nM.

With `Cc1n[nH]c2ccnc(Nc3ccc(C(=O)N(C)c4ccccc4)cc3)c12` [Example 109, N-Methyl-4-(3-methyl-1H-pyrazolo[4,3-c]pyridin-4-ylamino)-N-phenyl-benzamide], the half-inhibitory concentration (IC50) fell in the range of 1000 to 10000 nM. With `COC(=O)c1ccc(CCc2n[nH]c3ccnc(NC4CCCCC4)c23)cc1` [Example 232, 4-[2-(4-Cyclohexylamino-1H-pyrazolo[4,3-c]pyridin-3-yl)-ethyl]-benzoic acid methyl ester], the IC50 was 100 to 1000 nM. The value for `Cc1cc(C)n(CCNc2nccc3[nH]nc(C)c23)n1` [Example 323, [2-(3,5-Dimethyl-pyrazol-1-yl)-ethyl]-(3-methyl-1H-pyrazolo[4,3-c]pyridin-4-yl)-amine] was 1000 to 10000 nM; that for `Cc1n[nH]c2ccnc(-c3ccccc3)c12` [Example 56, 3-Methyl-4-phenyl-1H-pyrazolo[4,3-c] pyridine] was 1000 to 10000 nM. Turning to `COc1nccc2[nH]nc(/C=C/C(=O)N3CCC[C@@H](C)C3)c12` [Example 259, (E)-3-(4-Methoxy-1H-pyrazolo[4,3-c]pyridin-3-yl)-1-((R)-3-methyl-piperidin-1-yl)-propenone], the IC50 is < 100 nM. On to `Cc1n[nH]c2ccnc(NC(C)C(C)C)c12` (centres unmarked) [Example 27, (1,2-Dimethyl-propyl)-(3-methyl-1H-pyrazolo[4,3-c]pyridin-4-yl)-amine], for which the half-maximal inhibitory concentration (IC50) lay in the range of 100 to 1000 nM. Regarding `Cc1n[nH]c2ccnc(NC3CCN(C(=O)C4CCC4)CC3)c12` [Example 104, Cyclobutyl-[4-(3-methyl-1H-pyrazolo[4,3-c]pyridin-4-ylamino)-piperidin-1-yl]-methanone], the IC50 was 1000 to 10000 nM. For `CC1CCCCN1C(=O)CCc1n[nH]c2ccnc(NC3CCCCC3)c12` (centres unmarked) [Example 198, 3-(4-Cyclohexylamino-1H-pyrazolo[4,3-c]pyridin-3-yl)-1-(2-methyl-piperidin-1-yl)-propan-1-one], the 50% inhibitory concentration (IC50) is 100 to 1000 nM. With `CC1CN(C(=O)c2ccc(CCc3n[nH]c4ccnc(NC5CCCCC5)c34)cc2)C1` [Example 251, {4-[2-(4-Cyclohexylamino-1H-pyrazolo[4,3-c]pyridin-3-yl)-ethyl]-phenyl}-(3-methyl-azetidin-1-yl)-methanone] the figure was < 100 nM. Take `Cc1n[nH]c2ccnc(Nc3ccc(C(=O)N4CCOCC4)cc3)c12` [Example 112, [4-(3-Methyl-1H-pyrazolo[4,3-c]pyridin-4-ylamino)-phenyl]-morpholin-4-yl-methanone]: the IC50 fell in the range of 100 to 1000 nM. Take `c1ccc([C@@H]2CCCN(CCCc3n[nH]c4ccnc(NC5CCCCC5)c34)C2)cc1` [Example 215, Cyclohexyl-{3-[3-((S)-3-phenyl-piperidin-1-yl)-Propyl]-1H-pyrazolo[4,3-c]pyridin-4-yl}-amine]: the IC50 was 1000 to 10000 nM. With `Cc1n[nH]c2ccnc(NCCc3cccc(F)c3)c12` [Example 333, [2-(3-Fluoro-phenyl)-ethyl]-(3-methyl-1H-pyrazolo[4,3-c]pyridin-4-yl)-amine], the IC50 was in the range of 100 to 1000 nM.

On to `c1ccc(CCc2n[nH]c3ccnc(NC4CCCCC4)c23)cc1` [Example 213, Cyclohexyl-(3-phenethyl-1H-pyrazolo[4,3-c]pyridin-4-yl)-amine], for which the IC50 was < 100 nM.

With `Cc1n[nH]c2ccnc(O[C@H](C)C(C)C)c12` [Example 288, 4-((R)-1,2-Dimethyl-propoxy)-3-methyl-1H-pyrazolo [4,3-c]pyridine], the IC50 is < 100 nM.

Regarding `Cc1n[nH]c2ccnc(OC3CCC3)c12` [Example 281, 4-Cyclobutoxy-3-methyl-1H-pyrazolo[4,3-c]pyridine], the IC50 was 100 to 1000 nM. Regarding `O=C(CCc1n[nH]c2ccnc(NC3CCCCC3)c12)NC1CCCC1` [Example 184, 3-(4-Cyclohexylamino-1H-pyrazolo[4,3-c]pyridin-3-yl)-N-cyclopentyl-propionamide], the half-inhibitory concentration (IC50) is 100 to 1000 nM. `COc1ccc(-c2n[nH]c3ccnc(NC4CCCCC4)c23)cc1Cl` [Example 140, [3-(3-Chloro-4-methoxy-phenyl)-1H-pyrazolo[4,3-c]pyridin-4-yl]-cyclohexyl-amine]: the IC50 fell in the range of 100 to 1000 nM. As to `CN(C)C(=O)CCc1n[nH]c2ccnc(NC3CCCCC3)c12` [Example 212, 3-(4-Cyclohexylamino-1H-pyrazolo[4,3-c]pyridin-3-yl)-N,N-dimethyl-propionamide], the IC50 lay in the range of 100 to 1000 nM. As to `O=C(Nc1ccc(CCc2n[nH]c3ccnc(NC4CCCCC4)c23)cc1)c1cccnc1` [Example 266, N-{4-[2-(4-Cyclohexylamino-1H-pyrazolo[4,3-c]pyridin-3-yl)-ethyl]-phenyl}-nicotinamide], the IC50 was < 100 nM.

With `Cc1cccc(Nc2nccc3[nH]nc(C)c23)c1` [Example 319, (3-Methyl-phenyl)-(3-methyl-1H-pyrazolo[4,3-c]pyridin-4-yl)-amine], the IC50 was in the range of 100 to 1000 nM.

Take `Brc1n[nH]c2ccnc(NC3CCCCC3)c12` [Example 134, (3-Bromo-1H-pyrazolo[4,3-c]pyridin-4-yl)-cyclohexyl-amine]: the IC50 was < 100 nM.
